In US20020076693A1, “Novel cell surface receptor for HIV retroviruses, therapeutic and diagnostic uses” (priority 1997, published 2002):
Entries after “also recorded” stand apart in the source; their conditions may differ.

Tests used:
[1] = tested on: V3 loop-BPs (nucleolin, PHAP II, PHAP I); test: BIAcore biosensor binding to immobilized V3 loop-BPs; parameters: species or system human
[2] = tested on: cell surface component (CEM and C8166 clones); test: Competition for cell-surface binding of 8-MAP; parameters: species or system human; settings: FACS competition
HIV-1 Lai [3] = test: HIV entry into HeLa P4 / P4-C5 cells (β-galactosidase activity), HIV-1 Lai; type: cell-based
SIVmac = SIVmac entry into HeLa cells (β-galactosidase); type: cell-based, SIV; settings: β-galactosidase at 48 hours
[4] = tested on: HIV-1 AZT resistant, Saquinavir resistant, Nevirapine resistant; test: Entry of HIV-1 isolates resistant to antiviral drugs into HeLa cells (β-galactosidase); type: cell-based; settings: heparin 5 mg/ml
Procedure: HIV entry and replication, results in the activation of the HIV LTR, leading to the expression of the lacZ gene. Therefore, at 24 and 48 hours post-infection, the β-galactosidase activity could be measured in cell extracts directly. Consequently, this latter technique could be used to monitor HIV entry into cells. The HIV dose used corresponded to the amount of virus containing 20-40 ng/ml of p24.
In these experiments, the background values of the β-galactosidase activity were assesed by the samples incubated with the a-CD4 mAb. Furthermore, the effect of heparin (5 mg/ml) was investigated.

HIV-1 Lai [5] = test: Binding of HIV particles to CEM cells (cell-associated p24); type: cell-based; settings: 37° C., 1 hour; TASP 10 mM, mAb OKT4A 10 μg/ml, mAb anti-CD4 5 μg/ml, rabbit antibodies 100 μg/ml
Procedure: B. The binding of HIV particles to CEM cells. […] The binding of HIV particles was estimated as described in “Materials and Methods”. The ordinate gives the concentration of p24 associated with the cells, i.e. particles bound on the cell surface as well as particles (or cores) entered into cells. Each value represents the mean of two identical samples. Similar results were obtained in two other indepenent experiments.
CEM cells (5×10^6) were first preincubated (15 min, 37° C.) in the absence (Control) or presence of mAb anti-CD4 CB-T4 (5 μg/ml; histogram a-CD4), rabbit peptide purified antibodies against nucleolin, PHAP II and PHAP I at 100 μg/ml, or combination of antibodies as shown (at the same concentrations as when used alone) before the addition of HIV-1 Lai (material corresponding to 5 ng of p24), and further incubation at 37° C. for 1 hr. The cells were then washed and cell extracts were prepared to estimate the amount of HIV binding to cells (HIV bound on the surface+HIV entered into cells). The amount of virus particles was estimated by measuring the concentration of p24. The experimental conditions were as described previously (Krust et al., 1993; Callebaut et al., 1997b).
After incubation at 37° C. for 1 hour with gentle shaking, cells were diluted 10 fold in the culture medium and pelleted by centrifugation. […]

MOLT4 cells = test: FACS binding of FITC-labeled TASP after protease treatment of cells; parameters: species or system human
Procedure: The cells were then washed twice with FACS buffer and fixed in 1% formaldehyde in FACS buffer. […] The fluorescence intensity was monitored by FACS analysis using Lysis II Software in FIGS. 3/4 and Tables 1/2, or Cell Quest™ Software (Beckton Dickinson and Apple Computer) in FIG. 5 +L.
Protease treatment of CEM and MOLT cells was essentially as described previously (Borrow et al., 1992) with slight modifications. Briefly, cells were washed in PBS and in RPMI-1640 medium containing 1 mM EDTA before treatment with trypsin (Sigma; 2.5 mg/ml at 20° C. for 5 min), proteinase K (Bohringer Mannhein GmbH, Germany; 0.2 mg/ml at 37° C. for 30 min), or pronase E (Sigma, 0.1 mg/ml at 37° C. for 45 min). The reactions were stopped by 10 fold dilutions in RPMI-1640 containing 10% fetal calf serum. Cells were then washed in PBS and in FACS buffer, and processed for FACS analysis.
The expression of CD4 and CD26 in control cells (not treated with different proteases) was considered as 100%. Consequently the % positive cells after protease treatment were estimated by comparison with the untreated cells.

P30/PHAPI = P30/PHAPI (Homo sapiens, UniProt P39687); test: Saturation of binding sites of P30/PHAPI
Chain of P30/PHAPI (P39687 whole entry): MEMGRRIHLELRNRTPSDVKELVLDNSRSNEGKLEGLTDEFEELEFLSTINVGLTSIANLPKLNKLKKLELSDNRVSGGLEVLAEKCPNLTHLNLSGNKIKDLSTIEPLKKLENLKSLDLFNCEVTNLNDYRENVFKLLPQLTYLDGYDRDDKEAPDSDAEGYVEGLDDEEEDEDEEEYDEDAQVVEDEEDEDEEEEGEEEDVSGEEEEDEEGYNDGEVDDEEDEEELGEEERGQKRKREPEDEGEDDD

HIV-1 Bal = test: Infection of human monocyte-derived macrophages by HIV-1 (p24); type: cell-based; settings: HIV-1 BaL (TASP also Ada); p24 in supernatant
Procedure: Macrophages are infected with BaL or Ada HIV-1 viruses, in the presence of 2 μM, 1 μM or 0.1 μM of 5[Kψ (CH2N)PR]-TASP. Cells are preincubated during 30 min at 4° C. in the presence of 5[Kψ (CH2N)PR]-TASP before adding the virus. Every 3 days interval, the whole culture supernatant is collected and is replaced by RPMI 1640 culture medium supplemented with 20% fetal calf serum (FCS), 1% antibiotics, 1% glutamine, in addition to 5[Kψ (CH2N)PR]-TASP that is kept present in the culture medium until day 14 after in vitro infection. Virus production is quantitated by titration of p24 protein in the culture supernatant at different times (days) after in vitro infection. Each value represented in the graphs represents the mean of two test samples.
Macrophages are infected by the BaL VIH-1 virus in the presence of 100 μg/ml of anti-P95, anti-P40 and anti-P30 antibody. Cells are preincubated during 30 min at 4° C. in the presence of each kind of antibody before adding the virus. The antibodies are kept present in the culture medium during the whole infection period of time. […]
Cells are preincubated during 30 min at 4° C. in the presence of the different molecules either alone or in association before adding the virus. […] Virus production is quantitated by titration of p24 protein in the culture supernatant at different times (days) after in vitro infection. […]

[6] = binding protein(s) V3 loop-BPs, BIAcore

## 5[Kψ(CH2N)PR]-TASP
[1]; [6]
  Ka (equilibrium affinity constant): 9.61e+09 M⁻¹
  ka (association rate constant): 37.50 × 10^5 M^−1S^−1
  kd (dissociation rate constant): 0.39 × 10^−3 S^−1
[1]; binding to the V3 loop-BPs
  equilibrium affinity constant Ka: 9.6e+09 M⁻¹
[2]
  concentration sufficient to block the binding of 10 μM of 8-MAP: 1 µM
HIV-1 Lai [3]; 5-10 μM
  inhibition of viral entry monitored by β-galactosidase activity in HeLa/CD4^+ cells: at least 90%
HIV-1 Lai [3]; 37° C. in culture medium, 0.1-1 μM
  inhibition of HIV-1 LAI infection in HeLa cells: more than 90%
SIVmac
  effect on SIVmac entry: only a slight effect; also recorded: no significant effect
[4]
  effect on entry of drug-resistant HIV-1 isolates: Inhibits Entry
HIV-1 Lai [5]
  inhibition of binding of HIV particles to CEM cells: 78%
MOLT4 cells; after Pronase E treatment
  Cell-surface expression (% positive cells), TASP-Ligand: 8%
MOLT4 cells; after Proteinase K treatment
  Cell-surface expression (% positive cells), TASP-Ligand: 15%
MOLT4 cells; after Trypsin treatment
  Cell-surface expression (% positive cells), TASP-Ligand: 92%
P30/PHAPI
  concentration for 100% saturation of the binding sites: 8 µM
HIV-1 Bal
  effect on infection of human macrophages by HIV-1: inhibits, in a dose-dependent manner
